Where a name gives a salt, the structure may show the parent alone. Read-outs that look alike come from different tables or passages of the source.
What was measured:
[1] = target: T1, human thrombin (Homo sapiens, UniProt P00734); conditions: literature value; cited from earlier work
[2] = target: T2, human factor VIIa (Homo sapiens, UniProt P08709); test: Inhibition of Factor VIIa hydrolysis of chromogenic substrate S2288 (Ki); assay type: biochemical; conditions: purified human factor VIIa, 0.05 M tris buffer, pH 7.6, read-out: Ki values for inhibition of Serine Proteases: Factor VIIa
T2 construct: 50 nM human factor VIIa (BiosPacific, Emeryville, Calif.); purchased BiosPacific, Emeryville, Calif
T2 sequence (P08709 213-466 limits assumed): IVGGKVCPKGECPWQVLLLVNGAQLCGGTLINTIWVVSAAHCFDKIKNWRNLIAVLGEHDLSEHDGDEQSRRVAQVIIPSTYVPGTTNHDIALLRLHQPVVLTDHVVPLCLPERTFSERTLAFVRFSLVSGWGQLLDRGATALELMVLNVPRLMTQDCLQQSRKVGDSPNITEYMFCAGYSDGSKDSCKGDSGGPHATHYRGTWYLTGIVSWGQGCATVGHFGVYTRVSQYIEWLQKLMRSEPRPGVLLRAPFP
T2 sequence (P08709 61-212 partner limits assumed): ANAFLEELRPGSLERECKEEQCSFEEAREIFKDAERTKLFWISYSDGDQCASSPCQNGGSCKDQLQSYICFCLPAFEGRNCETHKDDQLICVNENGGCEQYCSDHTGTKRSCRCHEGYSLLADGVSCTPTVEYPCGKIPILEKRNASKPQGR
Summary of the method: (§1)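 Purified human proteases hydrolysed chromogenic substrates (thrombin S2238, Xa S2222, VIIa S2288), followed at 405 nm. Thrombin/Xa buffer: 0.10 M sodium phosphate pH 7.5, 0.20 M NaCl, 0.5% PEG 8000; VIIa: 0.05 M Tris pH 7.6, 0.10 M NaCl, 4 mM CaCl2, 0.1% BSA. Ki from velocities at 25–30 min.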

[3] = system: Thrombin time; test: Thrombin time (IC50), Table 80
[4] = target: T3, human factor Xa (Homo sapiens, UniProt P00742); test: Inhibition of Factor Xa hydrolysis of chromogenic substrate S2222 (Ki); assay type: biochemical; conditions: purified human factor Xa, 0.10 M sodium phosphate buffer, pH 7.5, read-out: Ki values for inhibition of Serine Proteases: Factor Xa
T3 construct: 0.2-0.5 nM human thrombin or human factor Xa; purchased Enzyme Research Laboratories, South Bend, Ind
T3 sequence (P00742 235-488 limits assumed): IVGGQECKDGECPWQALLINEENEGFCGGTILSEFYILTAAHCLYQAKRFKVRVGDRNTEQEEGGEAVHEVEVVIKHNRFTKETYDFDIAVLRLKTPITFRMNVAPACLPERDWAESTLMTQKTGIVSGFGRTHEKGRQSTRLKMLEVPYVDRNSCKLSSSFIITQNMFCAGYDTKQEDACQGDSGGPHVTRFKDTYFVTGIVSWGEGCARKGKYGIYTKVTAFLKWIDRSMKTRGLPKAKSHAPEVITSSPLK
T3 sequence (P00742 41-179 partner limits assumed): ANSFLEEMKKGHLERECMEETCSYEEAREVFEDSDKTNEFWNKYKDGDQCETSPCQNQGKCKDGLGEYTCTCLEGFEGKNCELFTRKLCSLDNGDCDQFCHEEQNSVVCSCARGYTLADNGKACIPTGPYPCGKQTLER
Summary of the method: as §1

[5] = target: T1, human thrombin; test: Inhibition of thrombin hydrolysis of chromogenic substrate S2238 (Ki); assay type: biochemical; set-up: 0.2-0.5 nM human thrombin or human factor Xa; purchased Enzyme Research Laboratories, South Bend, Ind; conditions: purified human thrombin, 0.10 M sodium phosphate buffer, pH 7.5, read-out: Ki values for inhibition of Serine Proteases: Trombin
Summary of the method: as §1

[6] = target: thrombin; conditions: literature value; cited from earlier work

Compound	Ki [2] [nM]	IC50 [3] [nM]	Ki [4] [nM]	Ki [5] [nM]	Ki [1] [nM]	Ki [6] [nM]
N=C(N)NCCC[C@@H](C=O)NC(=O)[C@@H]1CCCN1C(=O)[C@H](N)Cc1ccccc1 [D-phenylalanyl-prolyl-arginal]	–	–	–	–	75	–
NCCCCC(NC(=O)CN(CCc1ccccc1)C(=O)CCCC(=O)O)B(O)O (centres unmarked) [Example 66.1.1, Glutaryl-[N-(Phenethyl)-Gly]-boroLys--OH HCl]	< 50000	< 50000	< 500	< 500	–	–
COC(=O)CCC(=O)N(CCc1ccccc1)CC(=O)NC(CCCCN)B(O)O (centres unmarked) [Example 68.3.3, Methyl Succinyl-[N-(Phenethyl)-Gly]-boroLys--OH HCl]	< 50000	< 50000	< 50000	< 500	–	–
N#CC(CCCNC(=N)N)NC(=O)[C@@H]1CCCN1C(=O)[C@H](N)Cc1ccccc1 (stereo partly drawn) [D-phenylalanyl-prolyl-NHCH((CH2)3 NHC(=NH)NH2)--CN]	–	–	–	–	–	700
Cc1cccc(CCN(CC(=O)NC(CCCCN)B(O)O)C(=O)CCc2ccccc2)c1 (centres unmarked) [Example 52.1.2, Hydrocinnamoyl-[N-(3-methylphenethyl)-Gly]-boroLys--OH hydrochloride salt]	< 50000	< 500	< 500	< 500	–	–
2-Thiophenyl-Benzoyl-Sar-boroLys(CH=NH)-C10H16 [Example 63.4.2]	< 50000	< 50000	< 500	< 500	–	–
COC(=O)CCCC(=O)N(CCc1ccccc1)CC(=O)NC(CCCCN)B(O)O (centres unmarked) [Example 68.4.1, Methyl Glutaryl-[N-(Phenethyl)-Gly]-boroLys--OH HCl]	< 50000	< 50000	< 500	< 500	–	–

Second part, led by results:

Ki [2] [nM]	IC50 [3] [nM]	Ki [4] [nM]	Ki [5] [nM]	Compound	Ki [1] [nM]	Ki [6] [nM]
< 50000	< 50000	< 500	< 500	CC1(C)C2CC3OB(C(CCCCN)NC(=O)CN(CCc4ccccc4)C(=O)CCCC(=O)O)OC3(C)C1C2 (centres unmarked) [Example 69.1.1, Glutaryl-[N-(Phenethyl)-Gly]-boroLys-C10H16]	–	–
< 500	< 500	< 50000	< 500	CC1(C)C2CC3OB(C(CCCCN)NC(=O)CN(C(=O)CCc4ccccc4)C4CC4)OC3(C)C1C2 (centres unmarked) [Example 54.4.2, Hydrocinnamoyl-[N-(Cyclopropyl)-Gly]-boroLys-C10H16 HCl]	–	–
< 500	< 500	< 500	< 500	NCCCCC(NC(=O)CN(CCc1ccccc1C1CC1)C(=O)CCc1ccccc1)B(O)O (centres unmarked) [Example 53.1.2, Hydrocinnamoyl-[N-(2-(Cyclopropyl)-Phenethyl)-Gly]-boroLys--OH HCl]	–	–
< 500	< 50000	< 50000	< 500	CC1(C)C2CC3OB(C(CCCCN)NC(=O)CN(C(=O)CCc4ccccc4)C4CCCCC4)OC3(C)C1C2 (centres unmarked) [Example 54.4.3, Hydrocinnamoyl-[N-(Cyclohexyl)-Gly]-boroLys-C10H16 HCl]	–	–

From patent US6060462A, “Electrophilic peptide analogs as inhibitors of trypsin-like enzymes” (DuPont Pharmaceuticals Company, priority 1997, dated 2000)
